Experimental data reported in PMC4865820, “Branched Peptide, B2088, Disrupts the Supramolecular Organization of Lipopolysaccharides and Sensitizes the Gram-negative Bacteria” (Scientific Reports, 2016).
In brackets after ≈: the same amount, converted by molar mass.

How the values were obtained:
P. aeruginosa DR4877/07 [1] = assay type: cell-based; settings: for FICI of B2088-antibiotic combination: lowest FICI reported, two independent duplicates; for Fold decrease in the MIC of antibiotics at sub-lethal/sub-inhibitory concentrations of B2088: multidrug resistant P. aeruginosa 4877
Summary of the method: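 Checkerboard combinations of peptide and antibiotic, each 2-fold diluted up to 1× MIC in MHB, were tested against ~10^6 CFU/ml final inoculum. Plates were incubated 24 h at 37 °C, with growth read at OD600. FICI was the sum of the combination-to-alone MIC ratios for each agent, and the lowest FICI from duplicate experiments was reported.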

P. aeruginosa DR4877/07 [2] = assay: microbe, parasite or virus in culture; settings: Pseudomonas aeruginosa, DR4877/07, 24 h, read-out: MIC of antibiotics
Description: (§1) MIC of each peptide was determined using the microdilution method in a 96 well microtitre plates (SPL Life Sciences Co., Ltd, Korea). Two-fold serial dilutions of each peptide in Mueller-Hinton Broth (MHB) was prepared from a 1 mg/ml stock solution of the peptide in the same broth, to obtain a final concentration in the range of 0.0976–50 μg/ml in each well. Bacterial suspensions (P. aeruginosa ATCC 27853, P. aeruginosa 4877, P. aeruginosa 23155, K. pneumoniae ATCC 10031 and K. pneumoniae 4299) were prepared by suspending the overnight cultured bacteria in saline and adjusting the inoculum to ~10^8 colony forming units (CFU) per ml. A further 150-fold dilution was then prepared in MHB to achieve a final cell density of 10^5–10^6 CFU/ml. In each well, 100 μl of inoculum was mixed with the equal volume of peptides at their 2× concentration. Positive and negative controls contained 200 μl of inoculum (without any peptide) and broth alone (no peptide/inoculum) respectively. Another negative control in which MHB containing 200 μl of peptide alone in its highest concentration tested (50 μg/ml) was also included to ensure that the optical density measured in the test wells was not due to turbidity of the peptides in solution. The 96 well polystyrene plates were then incubated at 37 °C for 24 h and the optical density at 600 nm (OD600) was measured every 30 min continuously using a TECAN microplate reader (TECAN Infinite 200, Austria).

[3] = tested on: E. coli D21 and LPS outer core polysaccharide truncated mutant strains; assay: MIC ratio against LPS-truncated E. coli mutants; assay type: cell-based; settings: oligosaccharide-truncated mutants vs wild type D21; increase seen against D21e9 lacking outer core polysaccharides
Description: LPS is a complex glycosylated lipid molecule comprising of a hydrophobic lipid A and core oligosaccharides. The core oligosaccharides are structurally divided into an inner core (lipid A proximal) region and an outer core O-antigen region (Fig. 4a). To ascertain if the alterations in OM polysaccharides modify the barrier penetration and antimicrobial properties of the peptides, we determined the MIC of the peptides against 4 cell-wall defective mutants of E. coli (Fig. 4a). We report the MIC ratio (i.e., MICmut/MICwt) which is the ratio of MIC of peptides/antibiotics against oligosaccharides truncated mutant strains over MIC of wild type (D21) strains. For antibiotics that access intracellular targets through porin pathways or peptides that bind to the lipid A part of the LPS, the MIC ratio is independent of LPS truncation (Fig. 4b). However, antibiotics or peptides which interact with outer or inner core polysaccharides of the LPS are expected to show changes in the MIC ratio.
All the peptide congeners were purchased from M/s. Mimotopes Pty Ltd, Australia. The peptides were used as such and the homogeneity of peptides were confirmed by HPLC. Unless otherwise stated all the chemicals and the antibiotics tested were purchased from Sigma Aldrich (Singapore) Pte Ltd. The florescent probe, BODIPY TR cadaverine (BC) was purchased from Molecular Probes/ Invitrogen (CA, USA). E. coli LPS outer core polysaccharide truncated mutant strains were obtained from CGSG, The Coli Genetic Stock Centre, Yale University, […], USA. Relevant genotype of the strains are, D21 (rfa+); D21e19 (rfa-11) is a deficient mutant in carbohydrates close to the O-antigen part; D21e7 (rfa-1) is deficient in galactose as well as O-antigen; D21f1 (rfa-1, rfa21) lacks phosphate groups in the LPS has glucose and heptose intact; D21f2 (rfa-1, rfa-31) is deficient in heptose of the inner core[57][58].
as §1, with “Austria). All the experiments were performed in two independent duplicates and the MIC was determined as the lowest peptide concentration in which no visible growth was observed.” for “Austria).”

K. pneumonia 4299 [4] = assay: microbe, parasite or virus in culture; assay type: cell-based, K. pneumoniae; settings: Klebsiella pneumoniae, 4299; individual peptide/antibiotics; read-out: MIC against K. pneumoniae 4299
Summary of the method: (§2)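 Peptides two-fold diluted in Mueller-Hinton Broth (0.0976–50 μg/ml final) against 10^5–10^6 CFU/ml inoculum, 37 °C for 24 h with OD600 monitored every 30 min. MIC = lowest concentration with no visible growth; two independent duplicates.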

K. pneumoniae 07955 = assay: microbe, parasite or virus in culture; assay type: cell-based; settings: Klebsiella pneumoniae, 07955; individual peptide/antibiotics; read-out: MIC against K. pneumoniae 07955
K. pneumonia 4299 [5] = assay: Checkerboard assay; assay type: cell-based, K. pneumoniae; settings: for Fractional inhibitory concentration of B2088 used for FICI calculation: first number in parenthesis, in combination with the labelled antibiotic; for Fractional inhibitory concentration of antibiotic used for FICI calculation: second number in parenthesis, in combination with B2088
Description: (§3) The synergism between peptides with conventional antibiotics was evaluated using checkerboard assays. For a comparison polymyxin B (PMB) was also tested against each antibiotic. From their stock solutions, two-fold dilutions of each antibiotic and peptide to 1× MIC were prepared in MHB. 50 μl of each peptide concentration was added into the wells of a 96-well polystyrene plates (SPL Life Sciences Co. Ltd, Korea) in a horizontal orientation and the same volume of each antibiotic concentration were then added in a vertical orientation. Bacterial suspensions were prepared in MHB to yield final cell density of ~10^6 CFU/ml and 100 μl of bacterial suspension was mixed with each peptide-antibiotic combinations. This procedure was repeated for wells containing 200 μl of peptide alone and 200 μl of antibiotic alone in various concentrations. The positive and negative controls contained 200 μl of inoculum and MHB alone respectively. The plates were incubated at 37 °C for 24 hours and the optical density at 600 nm (OD600) was monitored as before. Fractional inhibitory concentration index (FICI) for all antibiotic- peptide combinations was calculated through the summation of (MIC of peptide in the combination/ MIC of peptide alone) and (MIC of antibiotics in combination/MIC of antibiotic alone). The experiments were performed in two independent duplicates and the combinations that gave the lowest FICI values was reported.

K. pneumonia 07955 = assay: Checkerboard assay; assay type: cell-based, K. pneumoniae; settings: for Fractional inhibitory concentration of B2088 used for FICI calculation: first number in parenthesis, in combination with the labelled antibiotic; for Fractional inhibitory concentration of antibiotic used for FICI calculation: second number in parenthesis, in combination with B2088
Description: as §3

K. pneumonia 31158 = assay: Checkerboard assay; assay type: cell-based, K. pneumoniae; settings: for Fractional inhibitory concentration of B2088 used for FICI calculation: first number in parenthesis, in combination with the labelled antibiotic; for Fractional inhibitory concentration of antibiotic used for FICI calculation: second number in parenthesis, in combination with B2088
Description: as §3

K. pneumoniae 31158 = assay: microbe, parasite or virus in culture; assay type: cell-based; settings: Klebsiella pneumoniae, 31158; individual peptide/antibiotics; read-out: MIC against K. pneumoniae 31158
P. aeruginosa ATCC 9027 [6] = assay: MIC, microdilution; assay type: cell-based
P. aeruginosa ATCC 9027 [7] = assay: Checkerboard assay; assay type: cell-based
Description: as §3

P. aeruginosa ATCC 27853 = assay: microbe, parasite or virus in culture; assay type: cell-based; settings: Pseudomonas aeruginosa, ATCC27853; antibiotic alone; read-out: MIC of gentamicin against this strain
Summary of the method: as §2

[8] = MIC of B2088 6.25 μg/ml, MHB, ~10^6 CFU/ml, 37 °C, 24 h

| Compound | MIC of antibiotics in the presence of ¼× sub-MIC of B2088 (P. aeruginosa DR4877/07 [1]; [8]) [mg/L] | MIC of antibiotics in the presence of ½× sub-MIC of B2088 (P. aeruginosa DR4877/07 [1]; [8]) [mg/L] | FICI of B2088-antibiotic combination (P. aeruginosa DR4877/07 [1]) | MIC (P. aeruginosa DR4877/07 [2]) [mg/L] | MIC ratio (MICmut/MICwt) [3] | MIC (K. pneumonia 4299 [4]) [mg/L] | MIC (K. pneumoniae 07955) [mg/L] | Fractional Inhibitory Concentration Index of B2088 with the antibiotic (K. pneumonia 4299 [5]) | Fractional inhibitory concentration of B2088 used for FICI calculation (K. pneumonia 4299 [5]) | Fractional inhibitory concentration of antibiotic used for FICI calculation (K. pneumonia 4299 [5]) | Fractional Inhibitory Concentration Index of B2088 with the antibiotic (K. pneumonia 07955) | Fractional inhibitory concentration of B2088 used for FICI calculation (K. pneumonia 07955) | Fractional inhibitory concentration of antibiotic used for FICI calculation (K. pneumonia 07955) | Fractional Inhibitory Concentration Index of B2088 with the antibiotic (K. pneumonia 31158) | Fractional inhibitory concentration of B2088 used for FICI calculation (K. pneumonia 31158) | Fractional inhibitory concentration of antibiotic used for FICI calculation (K. pneumonia 31158) | Fold decrease in the MIC of antibiotics at sub-lethal/sub-inhibitory concentrations of B2088 (P. aeruginosa DR4877/07 [1]) [fold] | MIC (K. pneumoniae 31158) [mg/L] | further results |
| --- | --- | --- | --- | --- | --- | --- | --- | --- | --- | --- | --- | --- | --- | --- | --- | --- | --- | --- | --- |
| CC1(C)S[C@@H]2[C@H](NC(=O)C(C(=O)O)c3ccccc3)C(=O)N2[C@H]1C(=O)O (stereo partly drawn) [Carbenicillin, reference compound] | 800 | 200 | 0.63 | 1600 | did not show any change | – | – | – | – | – | – | – | – | – | – | – | – | – | – |
| O=C(N[C@H](CO)[C@H](O)c1ccc([N+](=O)[O-])cc1)C(Cl)Cl [Chloramphenicol] | 50 | 25 | 0.5 | 200 | marked increase | 12.5 (≈ 38.7 µM) | 50 (≈ 155 µM) | 0.38 | 0.13 | 0.25 | 0.38 | 0.13 | 0.25 | 0.63 | 0.5 | 0.13 | 4 | 3.12 (≈ 9.67 µM) | FICI of polymyxin B-antibiotic combination (P. aeruginosa DR4877/07 [1]): 0.63; MIC of antibiotics in the presence of ⅛× sub-MIC of B2088 (P. aeruginosa DR4877/07 [1]; [8]): 100 mg/L |
| CNC(C)C1CCC(N)C(OC2C(N)CC(N)C(OC3OCC(C)(O)C(NC)C3O)C2O)O1 (stereo not drawn) [Gentamicin] | – | – | – | – | marked increase | 0.39 (≈ 0.817 µM) | 100 (≈ 209 µM) | 0.37 | 0.125 | 0.25 | 0.75 | 0.25 | 0.5 | 0.31 | 0.25 | 0.06 | 4 | 0.05 (≈ 0.105 µM) | MIC of antibiotics (Table S1) (P. aeruginosa ATCC 9027 [6]; Gentamycin alone, ATCC 9027): 0.39 mg/L; MIC of antibiotics (P. aeruginosa ATCC 9027 [6]; gentamicin alone, ATCC 9027 used because DR4877/07 too resistant): 0.39 mg/L; FICI of polymyxin B-antibiotic combination (P. aeruginosa ATCC 9027 [7]; Gentamycin): 1.0; MIC of antibiotics in the presence of ½ × sub-MIC of Polymyxin B (P. aeruginosa ATCC 9027 [7]; Gentamycin): 0.195 mg/L; MIC of antibiotics in the presence of ¼× sub-MIC of B2088 (P. aeruginosa ATCC 9027 [7]; gentamicin): 0.098 mg/L; MIC of antibiotics in the presence of ½× sub-MIC of B2088 (P. aeruginosa ATCC 9027 [7]; gentamicin): 0.024 mg/L; MIC of antibiotics in the presence of ⅛× sub-MIC of B2088 (P. aeruginosa ATCC 9027 [7]; gentamicin): 0.195 mg/L; FICI of B2088-antibiotic combination (P. aeruginosa ATCC 9027 [7]; gentamicin, lowest FICI reported): 0.5; MIC (P. aeruginosa ATCC 27853): 0.04 mg/L |
